Laboratory results reported in PMC8305169, “Two Pathway-Specific Transcriptional Regulators, PltR and PltZ, Coordinate Autoinduction of Pyoluteorin in Pseudomonas protegens Pf-5” (Microorganisms, 2021).
pKd: −log10 of the molar value.

Molecular target: T1, PltZ (Pseudomonas protegens, UniProt Q4KCY3)
T1 construct: full-length, N-terminal 6xHis tag (pET28a), expressed in E. coli BL21 (DE3), Ni-NTA purified
Assay: isothermal titration calorimetry
Type: binding

T1 sequence (Q4KCY3 entry or part of it): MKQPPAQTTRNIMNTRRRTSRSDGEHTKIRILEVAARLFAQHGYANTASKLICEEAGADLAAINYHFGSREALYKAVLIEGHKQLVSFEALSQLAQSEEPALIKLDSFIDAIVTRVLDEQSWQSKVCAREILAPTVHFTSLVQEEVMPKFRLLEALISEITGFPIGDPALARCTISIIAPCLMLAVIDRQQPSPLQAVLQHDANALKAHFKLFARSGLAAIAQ

SMILES: O=C(c1cc(Cl)c(Cl)[nH]1)c1c(O)cccc1O [pyoluteorin]
- pKd: ~7.88
